Source: publication PMC12980401 (Science translational medicine, 2025)

Tests used:
chow-fed rats [1] = assay: Counterregulatory response to hindbrain glucoprivation; type: in vivo, rat
chow-fed rats [2] = type: in vivo, rat
HFD-fed rats = type: in vivo, rat
[3] = tested on: chow-fed and HFD-fed rats; assay: Oral glucose tolerance test; type: in vivo, rat; conditions: for Glucose-stimulated plasma insulin: OGTT
musk shrew = assay: Food intake, body weight and emesis in musk shrews; type: in vivo, Suncus murinus; conditions: intraperitoneal 5 mg/kg; for Food intake in musk shrews: n = 9
Half-life in rat serum = type: in vitro ADME
rats = assay: Kaolin intake; conditions: fourth ICV 20 μg
chow-fed rats [4] = assay: Telemetry of core body temperature, physical activity and heart rate; conditions: lateral ventricle, high dose ODN (100 μg), TDN 20 and 100 μg
[5] = tested on: chow-fed and HFD-fed rats; assay: Insulin tolerance test; type: in vivo, rat; conditions: fourth ICV TDN 200 μg/2 μl
lean and DIO mice = assay: Food intake and body weight after intraperitoneal injection in mice; type: in vivo, mouse
DIO mice = assay: Hyperinsulinemic-euglycemic clamp in DIO mice; type: in vivo, mouse; conditions: single intraperitoneal 5 mg/kg before insulin infusion, vehicle 18%
[6] = HFD-fed rats, lateral ventricle 200 μg/2 μl
[7] = HFD-fed rats, fourth ICV TDN 200 μg/2 μl

O=C[C@H](O)[C@@H](O)[C@H](O)[C@H](S)CO [5-TG, 5-thio-D-glucose]
Food intake after glucoprivic agent (chow-fed rats [1]; lean rats, fourth ICV 210 μg at dark cycle onset, versus vehicle): increased food intake at 1 and 24 hours after injection

octadecaneuropeptide [ODN]
24-hour body weight change (chow-fed rats [2]; lean chow-fed rats, fourth ICV ODN 0.2, 2 and 20 μg): without affecting 24-hour body weight
Time to consume the first bout of food (latency) (chow-fed rats [2]; lean chow-fed rats, fourth ICV, 2 μg): delayed
Size of the first meal (chow-fed rats [2]; lean chow-fed rats, fourth ICV, 20 μg): reduced
24-hour food intake and body weight (HFD-fed rats; HFD-maintained rats, fourth ICV, 20 μg): decreasing 24-hour food intake and body weight
Meal duration 6 to 12 hours postinjection (HFD-fed rats; HFD-maintained rats, fourth ICV, highest dose (20 μg)): decreased meal duration
Plasma glucagon after intraperitoneal insulin (chow-fed rats [1]; fourth ICV ODN 20 μg 15 min before ip insulin 0.75 U/kg, chow-fed rats): lowered plasma glucagon concentrations 30 min after intraperitoneal insulin
5-TG-induced hyperglycemia (1-hour blood glucose) (chow-fed rats [1]; lean rats, fourth ICV ODN 20 μg pretreatment before 5-TG 210 μg): blunted 5-TG–induced hyperglycemia 1 hour after injection
5-TG-mediated hyperphagia (chow-fed rats [1]; lean rats, fourth ICV ODN 20 μg/2 μl pretreatment before 5-TG 210 μg): suppressed 5-TG–mediated hyperphagia at the 4-hour time point
Circulating free fatty acids after 5-TG (chow-fed rats [1]; plasma 30 min, fourth ICV ODN 20 μg before 5-TG): suppressed by hindbrain ODN pretreatment
Glucose tolerance (OGTT) ([3]; DIO rats, fourth ICV 200 μg): markedly improved
OGTT area under the curve ([3]; lean rats, fourth ICV 200 μg (higher dose)): reduced the overall area under the curve
Glucose-stimulated plasma insulin ([3]; lean rats, fourth ICV 200 μg): without enhancing glucose-stimulated plasma insulin
24-hour body weight change in musk shrews (musk shrew): without affecting body weight at 24 hours
Emetic episodes in musk shrews (musk shrew): caused no emetic episodes
Food intake in musk shrews (musk shrew): suppressed food intake at 6 and 24 hours after injection
Half-life in rat serum (Half-life in rat serum; rat serum, average half-life (fig. S6, I and J)): 12.4 min
Kaolin intake (rats): did not cause kaolin intake
Telemetry variables at individual hours (chow-fed rats [4]): decreased locomotor activity at hour 8

tridecaneuropeptide [TDN]
24-hour body weight (HFD-fed rats; [6]): without an impact on body weight
24-hour food intake (HFD) (HFD-fed rats; [6]): suppressed 24-hour food intake
OGTT AUC [3, 7]: lowered the OGTT AUC
Glucose-stimulated plasma insulin [3, 7]: without heightening glucose-stimulated plasma insulin concentrations
Insulin sensitivity during insulin tolerance test [5]: improved by fourth ICV TDN
24-hour body weight change in musk shrews (musk shrew): without altering 24-hour weight change
Food intake in musk shrews (musk shrew): suppressed 24-hour food intake
Half-life in rat serum (Half-life in rat serum; rat, serum): 21.2 min
Body weight loss over 9 days (lean and DIO mice; DIO mice, daily intraperitoneal 5 mg/kg for 9 days): 4.7%
Daily HFD intake (lean and DIO mice; DIO mice, daily intraperitoneal 5 mg/kg for 9 days, n = 6): suppressed HFD intake immediately on day 1
24-hour food intake and body weight (lean and DIO mice; lean mice, peripheral administration 5 mg/kg): no effect in lean mice
Suppression of endogenous glucose appearance (Ra) relative to baseline (DIO mice): 57%

B1: recombinant DBI protein: recombinant diazepam binding inhibitor protein, parent of ODN (protein, UniProt P07108 2-87, looked up)
Acyl-CoA-binding protein: SQAEFEKAAEEVRHLKTKPSDEEMLFIYGHYKQATVGDINTERPGMLDFTGKAKWDAWNELKGTSKEDAMKAYINKVEELKKKYGI
Chow intake (chow-fed rats [2]; chow-maintained rats, fourth ICV 2 μg/2 μl): suppressed chow intake at 6 and 12 hours postinjection
HFD intake (HFD-fed rats; HFD-maintained rats, fourth ICV 2 μg/2 μl): without affecting HFD intake
